How the values were obtained:
Type in all cases: cell-based, human
[1] = test system: GBM8 (high-passage patient-derived GBM line); assay: Drug screening of GBM8 tumor foci on OBSCs
Procedure: (§1) Tumor cells (0.17 μL, 25,000 cells) were seeded onto OBSCs 2h after slicing, with one tumor seeded in the center of each hemisphere for a total of two tumor foci per OBSC. BSM was changed 24h after slicing. Fluorescence images were taken 0 h, 24 h, and 96 h post-seeding for normalization of tumor size. Bioluminescence readouts were also taken at 0 h, 24 h, and 96 h post seeding for assessment of cell viability. Luciferin was added underneath the culture insert and allowed to incubate for 10 min before bioluminescence measurement on an AMI optical imaging system.
(§2) Tumor cells were seeded onto OBSCs 2h after slicing as described above. One day after tumor seeding, six concentrations of each drug were diluted in the media underneath each culture insert, or XRad was applied using an X-Rad 320 Precision X-ray machine (n = 4 tumor foci per concentration; n ≥ 24 tumor foci per drug per cell line). Three days after treatment, the bioluminescence of live tumor cells was measured using an AMI optical imager (Spectral Instruments) and dose-response curves were generated. Tumor survival was normalized to day one tumor fluorescence and compared to an untreated control group.
(§3) Several weighted parameters were factored into an overall drug sensitivity score.
(§4) For DSS parameters 1–6, therapeutic windows were calculated by comparing OBSC toxicity and tumor response at the doses where tumor kill passed through the DSS parameter (Table S1 and S3). For DSS parameter 7, the therapeutic window was calculated by comparing the slopes through the tumor EC50 and the OBSC tox EC50. For DSS parameter 8, the therapeutic window was calculated by comparing the areas under tumor kill and OBSC tox curves. Normalized therapeutic window ratios for DSS parameters 1–8 within each drug-tumor-OBSC interaction were calculated in the following manner: within each window, values ranged from +1 to −1, where values approaching +1 signify increasing tumor kill relative to normal tissue toxicity, and values approaching −1 indicate agents where tumors remained highly viable while toxicity to the normal OBSC tissue was elevated. DSS parameters 9–11 were determined based on the behavior of the tumor in response to the drug, as defined above.
(§5) All individually weighed parameters were added together to generate the DSS. Overall DSS from 0 to 100 signify increasing efficacy in tumor kill relative to OBSC toxicity, while scores from 0 to −100 describe scenarios in which tumors thrive more effectively than OBSCs for a given treatment. Dose-response values were calculated via linear interpolation of raw data, not from best-fit curve equations.

[2] = test system: LN229 (established GBM line); assay: Drug screening of LN229 tumor foci on OBSCs
Procedure: as §1, §2, §3, §4, §5

[3] = test system: MB231Br (breast cancer metastasis to brain); assay: Drug screening of MB231Br tumor foci on OBSCs
[4] = test system: U373KO (RAD18 knockout of U373WT via CRISPR); assay: Drug screening of U373KO tumor foci on OBSCs; settings: U373 KO on OBSCs
Procedure: as §1, §2, §3, §4, §5

[5] = test system: 7 cell lines (MB231Br, LN229, U373WT, U373KO, GBM8, MS21, PDIPG); assay: Drug screening on OBSCs, summary over the panel of seven tumor lines; settings: number of lines responding
Procedure: as §1, §2, §3, §4, §5

[6] = test system: U373WT (wild-type established GBM line); assay: Drug screening of U373WT tumor foci on OBSCs
Procedure: as §1, §2, §3, §4, §5

[7] = test system: PDIPG (low-passage pediatric patient-derived line); assay: Drug screening of PDIPG tumor foci on OBSCs
Procedure: as §1, §2, §3, §4, §5

[8] = test system: MS21 (low-passage patient-derived GBM line); assay: Drug screening of MS21 tumor foci on OBSCs
Procedure: as §1, §2, §3, §4, §5

[9] = area under the dose-response curve, trapezoidal rule
[10] = dose required to kill 10% of the tumor
[11] = dose required to kill 25% of the tumor
[12] = dose required to kill 75% of the tumor

O=NN(CCCl)C(=O)NC1CCCCC1 [Lomustine]
Killing at highest dose ([1]; GBM8 on OBSCs): 1.00E+00 fraction of tumor population killed | AUC ([1]; GBM8 on OBSCs, area under the dose-response curve, trapezoidal rule): 1.54E+01 | EC10 ([1]; GBM8 on OBSCs, dose required to kill 10% of the tumor): 0.685 µM | EC25 ([1]; GBM8 on OBSCs, dose required to kill 25% of the tumor): 1.71 µM | EC75 ([1]; GBM8 on OBSCs, dose required to kill 75% of the tumor): 5.45 µM | Slope ([1]; GBM8 on OBSCs, slope through the EC50): -1.46E-01 | EC50 ([1]; Homo sapiens): 3.43 µM | EC90 ([1]; Homo sapiens): 8.71 µM | IC50 ([1]; Homo sapiens): 3.4 µM | Killing at highest dose [2]: 1.00E+00 fraction of tumor population killed | EC50 ([2]; Homo sapiens, LN-229, dose required to kill 50% of the tumor): 960 µM | EC90 ([2]; Homo sapiens, LN-229, dose required to kill 90% of the tumor): 1780 µM | IC50 ([2]; Homo sapiens, LN-229, dosed day 1, survival via bioluminescence day 4, linear interpolation): 960 µM | AUC [2, 9]: 9.70E+02 | EC10 [2, 10]: 417 µM | EC25 [2, 11]: 758 µM | EC75 [2, 12]: 1440 µM | Slope ([2]; slope through the EC50): -1.24E-03 | EC50 ([3]; Homo sapiens, MB231BR on OBSCs, dose required to kill 50% of the tumor): 1610 µM | EC90 ([3]; Homo sapiens, MB231BR on OBSCs, dose required to kill 90% of the tumor): 1940 µM | IC50 ([3]; Homo sapiens, MB231Br on OBSCs, dosed day 1, survival via bioluminescence day 4, linear interpolation): 1610 µM | Killing at highest dose ([3]; MB231BR on OBSCs): 9.70E-01 fraction of tumor population killed | AUC ([3]; MB231BR on OBSCs, area under the dose-response curve, trapezoidal rule): 1.96E+03 | EC10 ([3]; MB231BR on OBSCs, dose required to kill 10% of the tumor): 1280 µM | EC25 ([3]; MB231BR on OBSCs, dose required to kill 25% of the tumor): 1400 µM | EC75 ([3]; MB231BR on OBSCs, dose required to kill 75% of the tumor): 1820 µM | Slope ([3]; MB231BR on OBSCs, slope through the EC50): -1.20E-03 | EC50 ([4]; Homo sapiens, U373 MG, dose required to kill 50% of the tumor): 607 µM | EC90 ([4]; Homo sapiens, U373 MG, dose required to kill 90% of the tumor): 1830 µM | IC50 ([4]; Homo sapiens, U373 MG, dosed day 1, survival via bioluminescence day 4, linear interpolation): 607 µM | Killing at highest dose [4]: 9.70E-01 fraction of tumor population killed | AUC [4, 9]: 8.35E+02 | EC10 [4, 10]: 83.3 µM | EC25 [4, 11]: 208 µM | EC75 [4, 12]: 1460 µM | Slope ([4]; slope through the EC50): -5.60E-04 | response / killing over the 7 cell lines [5]: robust response | EC50 ([6]; Homo sapiens, U373 MG, U373 WT on OBSCs, dose required to kill 50% of the tumor): 665 µM | EC90 ([6]; Homo sapiens, U373 MG, U373 WT on OBSCs, dose required to kill 90% of the tumor): 1960 µM | IC50 ([6]; Homo sapiens, U373 MG, U373 WT on OBSCs, dosed day 1, survival via bioluminescence day 4, linear interpolation): 665 µM | Killing at highest dose ([6]; U373 WT on OBSCs): 9.10E-01 fraction of tumor population killed | AUC ([6]; U373 WT on OBSCs, area under the dose-response curve, trapezoidal rule): 8.89E+02 | EC10 ([6]; U373 WT on OBSCs, dose required to kill 10% of the tumor): 139 µM | EC25 ([6]; U373 WT on OBSCs, dose required to kill 25% of the tumor): 554 µM | EC75 ([6]; U373 WT on OBSCs, dose required to kill 75% of the tumor): 1380 µM | Slope ([6]; U373 WT on OBSCs, slope through the EC50): -2.24E-03 | DSS (drug sensitivity score) ([6]; U373 WT, scale -100 to +100, tumor kill relative to OBSC toxicity): 64 | EC50 ([7]; Homo sapiens): 688 µM | EC90 ([7]; Homo sapiens): 1880 µM | IC50 ([7]; Homo sapiens): 688 µM | Killing at highest dose ([7]; PDIPG on OBSCs): 9.30E-01 fraction of tumor population killed | AUC ([7]; PDIPG on OBSCs, area under the dose-response curve, trapezoidal rule): 9.11E+02 | EC10 ([7]; PDIPG on OBSCs, dose required to kill 10% of the tumor): 354 µM | EC25 ([7]; PDIPG on OBSCs, dose required to kill 25% of the tumor): 425 µM | EC75 ([7]; PDIPG on OBSCs, dose required to kill 75% of the tumor): 1310 µM | Slope ([7]; PDIPG on OBSCs, slope through the EC50): -4.80E-04 | EC50 ([8]; Homo sapiens): 1550 µM | EC90 ([8]; Homo sapiens): 1990 µM | IC50 ([8]; Homo sapiens): 1550 µM | Killing at highest dose ([8]; MS21 on OBSCs): 9.10E-01 fraction of tumor population killed | AUC ([8]; MS21 on OBSCs, area under the dose-response curve, trapezoidal rule): 1.61E+03 | EC10 ([8]; MS21 on OBSCs, dose required to kill 10% of the tumor): 1120 µM | EC25 ([8]; MS21 on OBSCs, dose required to kill 25% of the tumor): 1280 µM | EC75 ([8]; MS21 on OBSCs, dose required to kill 75% of the tumor): 1830 µM | Slope ([8]; MS21 on OBSCs, slope through the EC50): -9.20E-04
